Key:
Assay in all cases: relative viability (nuclei count vs DMSO), 5 days (fraction); higher = more cells survive
NCI-H647 = test system: NCI-H647
In short: (§1)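 A single step with final 0.05% Triton X-100, 1% formaldehyde and 1 ug/ml Hoechst fixed the cells and stained nuclei 5 days after treatment. Lung cancer cell lines in 1536-well plates had been treated by pin tool the day after seeding with one drug alone or a fixed anchor-drug dose plus five library-drug doses (not always all listed) in √10 steps, and nuclei were counted on 4× images. Relative viability is the ratio of nuclei in treated wells to nuclei in vehicle wells, taken as the median of duplicate plates.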

NCI-H1355 = test system: NCI-H1355
In short: as §1

NCI-H1792 = test system: NCI-H1792
In short: as §1

NCI-H522 = test system: NCI-H522
In short: as §1

SK-LU-1 = test system: SK-LU-1
In short: as §1

HARA = test system: HARA
In short: as §1

EKVX = test system: EKVX
In short: as §1

NCI-H661 = test system: NCI-H661
In short: as §1

NCI-H2009 = test system: NCI-H2009
In short: as §1

LOU-NH91 = test system: LOU-NH91
In short: as §1

SK-MES-1 = test system: SK-MES-1
In short: as §1

NCI-H2170 = test system: NCI-H2170
In short: as §1

NCI-H2342 = test system: NCI-H2342
In short: as §1

NCI-H1734 = test system: NCI-H1734
In short: as §1

NCI-H2087 = test system: NCI-H2087
In short: as §1

NCI-H2405 = test system: NCI-H2405
In short: as §1

NCI-H1993 = test system: NCI-H1993
In short: as §1

NCI-H1437 = test system: NCI-H1437
In short: as §1

BEN = test system: BEN
In short: as §1

HCC-827 = test system: HCC-827
In short: as §1

HCC-366 = test system: HCC-366
In short: as §1

NCI-H1395 = test system: NCI-H1395
In short: as §1

With Cc1sc2c(c1C)C(c1ccc(Cl)cc1)=N[C@@H](CC(=O)OC(C)(C)C)c1nnc(C)n1-2 [JQ1] + COc1cccc2cc(-c3nc([C@H]4CC[C@H](C(=O)O)CC4)n4ncnc(N)c34)[nH]c12 [OSI-027] (partner 0.5 µM) the relative viability (NCI-H647; first compound 0.04 µM) was 0.567, the relative viability (NCI-H647; first compound 0.1265 µM) was 0.469 and the relative viability (NCI-H647; first compound 0.4 µM) was 0.388. It also gave a relative viability (NCI-H647; first compound 1.265 µM) of 0.293, a relative viability (NCI-H647; first compound 4 µM) of 0.174 and a relative viability (NCI-H1355; first compound 0.04 µM) of 0.429. It also gave a relative viability (NCI-H1355; first compound 0.1265 µM) of 0.374, a relative viability (NCI-H1355; first compound 0.4 µM) of 0.42 and a relative viability (NCI-H1355; first compound 1.265 µM) of 0.25. The relative viability (NCI-H1355; first compound 4 µM) was 0.253, the relative viability (NCI-H1792; first compound 0.04 µM) was 0.666 and the relative viability (NCI-H1792; first compound 0.4 µM) was 0.82. The relative viability (NCI-H1792; first compound 1.265 µM) was 0.497, the relative viability (NCI-H1792; first compound 4 µM) was 0.57 and the relative viability (NCI-H522; first compound 0.04 µM) was 0.657. For the same compound, the relative viability (NCI-H522; first compound 0.1265 µM) was 0.556, the relative viability (NCI-H522; first compound 0.4 µM) was 0.617 and the relative viability (NCI-H522; first compound 4 µM) was 0.468. It also gave a relative viability (SK-LU-1; first compound 0.04 µM) of 0.381, a relative viability (SK-LU-1; first compound 0.1265 µM) of 0.333 and a relative viability (SK-LU-1; first compound 0.4 µM) of 0.253. It also gave a relative viability (SK-LU-1; first compound 1.265 µM) of 0.158, a relative viability (SK-LU-1; first compound 4 µM) of 0.143 and a relative viability (HARA; first compound 0.04 µM) of 0.418. For the same compound, the relative viability (HARA; first compound 0.1265 µM) was 0.341, the relative viability (HARA; first compound 0.4 µM) was 0.282 and the relative viability (HARA; first compound 1.265 µM) was 0.11. The relative viability (HARA; first compound 4 µM) was 0.141, the relative viability (EKVX; first compound 0.04 µM) was 0.698 and the relative viability (EKVX; first compound 0.1265 µM) was 0.587. It also gave a relative viability (EKVX; first compound 0.4 µM) of 0.722, a relative viability (EKVX; first compound 1.265 µM) of 0.571 and a relative viability (EKVX; first compound 4 µM) of 0.488. It also gave a relative viability (NCI-H661; first compound 0.04 µM) of 0.714, a relative viability (NCI-H661; first compound 0.1265 µM) of 0.517 and a relative viability (NCI-H661; first compound 0.4 µM) of 0.603. It also gave a relative viability (NCI-H661; first compound 1.265 µM) of 0.423, a relative viability (NCI-H661; first compound 4 µM) of 0.453 and a relative viability (NCI-H2009; first compound 0.04 µM) of 0.558. It also gave a relative viability (NCI-H2009; first compound 0.1265 µM) of 0.471, a relative viability (NCI-H2009; first compound 0.4 µM) of 0.318 and a relative viability (NCI-H2009; first compound 1.265 µM) of 0.185. The relative viability (NCI-H2009; first compound 4 µM) was 0.179, the relative viability (LOU-NH91; first compound 0.04 µM) was 0.721 and the relative viability (LOU-NH91; first compound 0.1265 µM) was 0.674. The relative viability (LOU-NH91; first compound 0.4 µM) was 0.564, the relative viability (LOU-NH91; first compound 1.265 µM) was 0.537 and the relative viability (LOU-NH91; first compound 4 µM) was 0.431. The relative viability (SK-MES-1; first compound 0.04 µM) was 0.614, the relative viability (SK-MES-1; first compound 0.1265 µM) was 0.497 and the relative viability (SK-MES-1; first compound 0.4 µM) was 0.379. It also gave a relative viability (SK-MES-1; first compound 1.265 µM) of 0.157, a relative viability (SK-MES-1; first compound 4 µM) of 0.158 and a relative viability (NCI-H2170; first compound 0.04 µM) of 0.683. For the same compound, the relative viability (NCI-H2170; first compound 0.1265 µM) was 0.623, the relative viability (NCI-H2170; first compound 0.4 µM) was 0.688 and the relative viability (NCI-H2170; first compound 1.265 µM) was 0.422. The relative viability (NCI-H2170; first compound 4 µM) was 0.362, the relative viability (NCI-H2342; first compound 0.04 µM) was 0.695 and the relative viability (NCI-H2342; first compound 0.1265 µM) was 0.605. The relative viability (NCI-H2342; first compound 0.4 µM) was 0.702, the relative viability (NCI-H2342; first compound 1.265 µM) was 0.681 and the relative viability (NCI-H2342; first compound 4 µM) was 0.52. For the same compound, the relative viability (NCI-H1734; first compound 0.04 µM) was 0.619, the relative viability (NCI-H1734; first compound 0.1265 µM) was 0.508 and the relative viability (NCI-H1734; first compound 0.4 µM) was 0.601. The relative viability (NCI-H1734; first compound 1.265 µM) was 0.354, the relative viability (NCI-H1734; first compound 4 µM) was 0.413 and the relative viability (NCI-H2087; first compound 0.04 µM) was 0.586. It also gave a relative viability (NCI-H2087; first compound 0.1265 µM) of 0.643, a relative viability (NCI-H2087; first compound 0.4 µM) of 0.699 and a relative viability (NCI-H2087; first compound 1.265 µM) of 0.302. For the same compound, the relative viability (NCI-H2087; first compound 4 µM) was 0.301, the relative viability (NCI-H2405; first compound 0.04 µM) was 0.651 and the relative viability (NCI-H2405; first compound 0.1265 µM) was 0.632. It also gave a relative viability (NCI-H2405; first compound 0.4 µM) of 0.696, a relative viability (NCI-H2405; first compound 1.265 µM) of 0.58 and a relative viability (NCI-H2405; first compound 4 µM) of 0.582. It also gave a relative viability (NCI-H1993; first compound 0.04 µM) of 0.511, a relative viability (NCI-H1993; first compound 0.1265 µM) of 0.608 and a relative viability (NCI-H1993; first compound 0.4 µM) of 0.623. It also gave a relative viability (NCI-H1993; first compound 1.265 µM) of 0.537, a relative viability (NCI-H1993; first compound 4 µM) of 0.538 and a relative viability (NCI-H1437; first compound 0.04 µM) of 0.871. The relative viability (NCI-H1437; first compound 0.1265 µM) was 0.809, the relative viability (NCI-H1437; first compound 0.4 µM) was 0.599 and the relative viability (NCI-H1437; first compound 1.265 µM) was 0.36. For the same compound, the relative viability (NCI-H1437; first compound 4 µM) was 0.319, the relative viability (BEN; first compound 0.04 µM) was 0.282 and the relative viability (BEN; first compound 0.1265 µM) was 0.286. It also gave a relative viability (BEN; first compound 0.4 µM) of 0.335, a relative viability (BEN; first compound 1.265 µM) of 0.252 and a relative viability (BEN; first compound 4 µM) of 0.2. For the same compound, the relative viability (HCC-827; first compound 0.04 µM) was 0.704, the relative viability (HCC-827; first compound 0.4 µM) was 0.532 and the relative viability (HCC-827; first compound 1.265 µM) was 0.866. For the same compound, the relative viability (HCC-827; first compound 4 µM) was 0.738, the relative viability (HCC-366; first compound 0.04 µM) was 0.958 and the relative viability (HCC-366; first compound 0.4 µM) was 0.783. It also gave a relative viability (HCC-366; first compound 1.265 µM) of 0.336, a relative viability (HCC-366; first compound 4 µM) of 0.31 and a relative viability (NCI-H1395; first compound 0.04 µM) of 0.626. The relative viability (NCI-H1395; first compound 0.1265 µM) was 0.489, the relative viability (NCI-H1395; first compound 0.4 µM) was 0.605 and the relative viability (NCI-H1395; first compound 1.265 µM) was 0.488. For the same compound, the relative viability (NCI-H1395; first compound 4 µM) was 0.477.

From the supplement of paper PMC10307832
